Patent US11903927B2, “Combination treatment of cancer” (Scandion Oncology A/S, priority 2016, dated 2024)
Like-named read-outs stand apart in the source and are kept apart here.

What was measured:
[1] = Method: The in vivo anti-tumor effect of NS3728 on C6 glioma cells given either as monotherapy (40 mg/kg/day) or in combination with temozolomide (Temodal, 25 or 5 mg/kg/day) was tested in two separate experiments, using either the xenograft method or the subcutaneous air sac model (SAS; see Lichtenberg, J., P. J. Hjarnaa, P. E. Kristjansen, D. Hansen & L. Binderup: The rat subcutaneous air sac mode: A quantitative assay of antiangiogenesis in induced vessels Pharmacology & Toxicology, 1999, 84, 34-40).
In the first study 5 million C6 rat glioma cells were inoculated into the flank of Fisher rats.

[2] = test system: human HT29 colon cancer cell line; experiment: HT29 colon tumour xenograft; assay type: in vivo; settings: mice; NS3728 80 mg/kg PO, paclitaxel 5 mg/kg IP, 5-flourouracil 30 mg/kg IP, alone or combined; dosing days 4-8, 11-15, 18-22
Method: The in vivo antitumor effect of NS3728 on the human HT29 colon cancer cell line were tested as monotherapy (80 mg/kg) respectively in combination with paclitaxel (5 mg/kg) or 5-flourouracil (30 mg/kg) in two independent experimental series. NS3728 was given per oral (PO), whereas both paclitaxel and 5-flourouracil were dosed intraperitoneally (IP) by injection.
The dosing occurred in periods (days 4-8; days 11-15, days 18-22) with daily dosing of both NS3728 and cytotoxic drug, interrupted by dosing holidays.

[3] = test system: VRAC; settings: read-out: IC50 as VRAC blocker; cited from earlier work
[4] = test system: SN-38 resistant LoVo CRC cancer cells
Method: (§5) The cells were seeded in 96-well plates (10,000 cells/well) and allowed to adhere for 24 hours. Subsequently, NS3728, OXP, SN-38 or combinations of the drugs were added for 48 hours before cell viability was determined. All values are expressed in percentage of untreated cells (named: “no treatment”). “DMSO” refers to the solvent control as both NS3728 and chemotherapeutic drugs are diluted in DMSO. Thus, the DMSO (Dimethyl sulfoxide) control is included to investigate any potential effect on cell viability by the organic solvent. Each data point was carried out in triplicate.

[5] = test system: HCT116 parental cells
Method: (§6) The cells were seeded in 96-well plates (10,000 cells/well) and allowed to adhere for 24 hours. Subsequently, NS3728, OXP, SN-38 or combinations of NS3728 with one of the cytotoxic drugs were added for 48 hours before cell viability was determined. All values are expressed in percentage of untreated cells (named: “no treatment”). “DMSO” refers to the solvent control as both NS3728 and chemotherapeutic drugs are diluted in DMSO. Thus, the DMSO (Dimethyl sulfoxide) control is included to investigate any potential effect on cell viability by the organic solvent. Each data point was carried out in triplicate.

[6] = test system: SN-38 resistant HT29 CRC cancer cells
Method: as §5

[7] = test system: SN-38 resistant HCT116 CRC cancer cells; experiment: MTT cell viability, SN-38 resistant HCT116; assay type: cell-based, human
Method: (§1) These cell lines are HCT116, HT29 and LoVo.
(§2) Each data point was carried out in triplicate.

[8] = test system: oxaliplatin resistant HT29 CRC cancer cells; experiment: MTT cell viability, oxaliplatin resistant HT29; assay type: cell-based, human
Method: as §1, §2

[9] = test system: HT29 parental cells
Method: as §6

[10] = test system: LoVo parental cells
Method: as §6

[11] = test system: fulvestrant-resistant MCF-7/LCC9 cells; experiment: MTT cell viability, fulvestrant resistant MCF-7/LCC9; assay type: cell-based, human
Method: These cell lines are MCF-7/LCC2. We also established human breast cancer cell lines that are resistant to the anti-estrogen Fulvestrant as described in Brünner et al 1997 (PMID: 9270017). MCF-7 is an estrogen and progesterone receptor positive cell line.
(§3) Subsequently, NS3728, docetaxel or combinations of the two drugs were added for 72 hours before cell viability was determined. […] Each data point was carried out in triplicate.

[12] = test system: SN-38 resistant LoVo CRC cancer cells; experiment: cells; settings: Homo sapiens, 48 h, read-out: cell viability
Method: as §5

[13] = test system: docetaxel resistant MCF-7 breast cancer cells; experiment: MTT cell viability, docetaxel resistant MCF-7; assay type: cell-based, human; settings: 72 hours
From the text: (§4) Breast cancer is a heterogenous disease and at least 6 subtypes of breast cancer have been described previously by Soerlie et al (PMID: 11553815). As a major difference, breast cancer can be divided into hormone (estrogen and progesterone) receptor positive and hormone receptor negative breast cancer. We have in our experiments included these two major subtypes. We established human breast cancer cell lines that are resistant to the chemotherapy docetaxel as described in Hansen et al 2015 (PMID: 25596703). These cell lines are MCF-7 and MDA-MB-231.
as §3

[14] = test system: cancer cells; settings: in vitro; cited from earlier work
[15] = test system: C6 glioma cells; experiment: C6 glioma subcutaneous air sac (SAS) model; assay type: in vivo, rat; settings: 2.5 million C6 cells on air sac membrane; NS3728 40 mg/kg/day oral, temozolomide 5 mg/kg/day, alone or combined; 10 days of treatment
Method: In the second study the tumour growth was retarded by inoculating only half the number of cells (2.5 million of C6 cells per animal) and making use of the subcutaneous air sac (SAS) technique. In brief, the rats were anaesthetized with CO2/O2 and 10-15 ml of air was introduced dorsally by subcutaneous injections to produce an air sac located approximately 4-5 cm behind the head. The wall of the air sac became progressively thicker with time and after 10-14 days a sufficient lining of cells with the appearance of a transparent membrane had been established. The C6 glioma cells were inoculated in the rats directly on the membrane. The treatment was started at the day of inoculation and the study was terminated on day 10 of treatment.

[16] = test system: Docetaxel resistant MDA-MB-231 breast cancer cells; experiment: MTT cell viability, docetaxel resistant MDA-MB-231; assay type: cell-based, human
From the text: as §4, §3

[17] = test system: tamoxifen-resistant MCF-7/LCC2 cells; experiment: MTT cell viability, tamoxifen resistant MCF-7/LCC2; assay type: cell-based, human; settings: 40 μM NS3728, 72 hours
Method: These cell lines are MCF-7/LCC2. We also established human breast cancer cell lines that are resistant to the anti-estrogen Fulvestrant as described in Brünner et al 1997 (PMID: 9270017). MCF-7 is an estrogen and progesterone receptor positive cell line. […] Subsequently, NS3728, docetaxel or combinations of the two drugs were added for 72 hours before cell viability was determined. […] Each data point was carried out in triplicate.

In the case of `Cn1nnc2c(C(N)=O)ncn2c1=O` [temozolomide, reference compound], the “signs of toxicity (subdued behaviour, hunched appearance, loss of body weight)” value ([1]; all animals treated with temozolomide 25 mg/kg/day) is reported as “Clear signs of toxicity”.
With `CC(=O)O[C@H]1C(=O)[C@@]2(C)[C@H]([C@H](OC(=O)c3ccccc3)[C@]3(O)C[C@H](OC(=O)[C@H](O)[C@@H](NC(=O)c4ccccc4)c4ccccc4)C(C)=C1C3(C)C)[C@]1(OC(C)=O)CO[C@@H]1C[C@@H]2O` [paclitaxel] the “tumour volume growth curves” value [2] was “mild (non-significant) depression of the growth curves”.
With `O=c1[nH]cc(F)c(=O)[nH]1` [5-flourouracil, 5-fluorouracil] the “tumour volume growth curves” value [2] was “mild (non-significant) depression of the growth curves”.
For `O=C(O)c1cc([N+](=O)[O-])ccc1NCCCc1ccccc1` [NPPB], the IC50 [3] is listed as 21000 nM.
For `CCc1c2c(nc3ccc(O)cc13)-c1cc3c(c(=O)n1C2)COC(=O)[C@]3(O)CC` [SN-38, reference compound], the cell viability ([4]; 0.16 μM SN-38, 48 hours) was “about 78 % of untreated cells”, the cell viability ([5]; 0.16 μM SN-38, 48 hours) was “about 50 % of untreated cells” and the cell viability ([6]; 0.8 μM SN-38, 48 hours) was “about 78 % of untreated cells”. The cell viability ([7]; 4 μM SN-38, 48 hours) was “almost no effect on cell viability”, the cell viability ([8]; 0.1 μM SN-38, 48 hours) was “about 43 % of untreated cells” and the cell viability ([9]; 0.032 μM SN-38, 48 hours) was “about 77 % of untreated cells”. For the same compound, the cell viability ([10]; 0.0064 μM SN-38, 48 hours) was “about 53 % of untreated cells”.
With `C[C@]12CC[C@@H]3c4ccc(O)cc4C[C@@H](CCCCCCCCC[S+]([O-])CCCC(F)(F)C(F)(F)F)[C@H]3[C@@H]1CC[C@@H]2O` (stereo partly drawn) [Fulvestrant, fulvestrant, reference compound] the cell viability ([11]; 1 μM Fulvestrant, 72 hours) was “no effect on the cell viability”.
For `O=S(=O)(O)c1cc(N=C=S)ccc1C=Cc1ccc(N=C=S)cc1S(=O)(=O)O` [DIDS], the IC50 [3] is listed as 26000 nM.
In the case of `O=C(Nc1cccc(C(F)(F)F)c1)Nc1ccc(Br)cc1-c1nnn[nH]1` [NS3623], the IC50 [3] is listed as 1800 nM.
For `O=C(Nc1cc(C(F)(F)F)cc(C(F)(F)F)c1)Nc1ccc(Br)cc1-c1nnn[nH]1` [NS3728], the “tumour volume growth curves” value [2] is given as “mild (non-significant) depression of the growth curves”, the viability at 40 µM [12] is given as ~57% and the IC50 [3] is given as 400 nM. The cell viability ([4]; 30 μM NS3728, 48 hours) was “about 80 % of untreated cells”, the cell viability ([4]; 50 μM NS3728, 48 hours) was “about 50 % of untreated cells” and the cell viability ([13]; 40 μM NS3728 monotherapy) was “did not decrease cell viability”. The cell viability ([5]; 40 μM NS3728, SN-38 experiment, 48 hours) was “about 50 % of untreated cells”, the cell viability ([5]; 50 μM NS3728, SN-38 experiment, 48 hours) was “about 50 % of untreated cells” and the cell viability ([5]; NS3728 alone in the OXP experiment (concentration not given in the sentence), 48 hours) was “about 50 % of untreated cells”. For the same compound, the “inhibition of cisplatin mediated apoptosis” value [14] was “inhibit cisplatin mediated apoptosis”, the “tumour growth rate / anti-tumor effect” value ([1]; 5 million C6 cells, flank of Fisher rats, NS3728 40 mg/kg/day oral, temozolomide 25 mg/kg/day, alone or combined, terminated day 4 of treatment) was “neither NS3728 (40 mg/kg/day) nor temozolomide (25 mg/kg/day) exhibited any significant anti-tumor effect” and the cell viability ([6]; 30 μM NS3728, 48 hours (increased viability)) was “about 120 % of untreated cells”. The cell viability ([6]; 40 μM NS3728, 48 hours) was “no effect on cell viability”, the cell viability ([6]; 50 μM NS3728, 48 hours) was “about 85 % of untreated cells” and the cell viability ([7]; 30 μM NS3728, 48 hours) was “about 85 % of untreated cells”. For the same compound, the “tumour growth inhibition as measured by tumour weight” value [15] was “significant inhibition of tumour growth”, the cell viability ([16]; 50 μM NS3728, 72 hours) was “did not decrease cell viability” and the cell viability ([8]; 20 μM NS3728, 48 hours) was “about 85 % of untreated cells”. The cell viability ([11]; 40 μM NS3728, 72 hours) was 60 % of untreated control, the cell viability ([9]; 40 μM NS3728, 48 hours) was “about 90 % of untreated cells” and the cell viability ([9]; 50 μM NS3728, 48 hours) was “about 77 % of untreated cells”. For the same compound, the cell viability [17] was 70 % of untreated control, the cell viability ([10]; 40 μM NS3728, 48 hours) was “about 45 % of untreated cells” and the cell viability ([10]; 50 μM NS3728, 48 hours) was “about 38 % of untreated cells”.
For `CC(=O)O[C@@]12CO[C@@H]1C[C@H](O)[C@@]1(C)C(=O)[C@H](O)C3=C(C)[C@@H](OC(=O)[C@H](O)[C@@H](NC(=O)OC(C)(C)C)c4ccccc4)C[C@@](O)([C@@H](OC(=O)c4ccccc4)[C@H]21)C3(C)C` [Docetaxel, docetaxel, reference compound], the cell viability ([13]; 65 nM Docetaxel monotherapy) was “did not decrease cell viability” and the cell viability ([16]; 150 nM Docetaxel, 72 hours) was “about 50 % of untreated controls”.
In the case of `O=C1[O][Pt]2([NH][C@@H]3CCCC[C@H]3[NH]2)[O]C1=O` [OXP, oxaliplatin, reference compound], the cell viability ([5]; OXP alone, 48 hours) is reported as “dose-dependently decreased cell viability”.
In the case of `O=C(Nc1ccc([N+](=O)[O-])cc1)Nc1ccc(Br)cc1-c1nnn[nH]1` [NS3749], the IC50 [3] is given as 1400 nM.
